Source: the NIST ThermoML archive (doi:10.1021/je400722h)

How the values were obtained:
[1] = excess molar enthalpy (molar enthalpy of mixing); xn = mol fraction of the nth substance listed; conditions: 308.15 K, 101 kPa, Liquid, Power-compensation calorimetry
[2] = xn = mol fraction of the nth substance listed; conditions: 101 kPa, Liquid; for speed of sound: Pulse-echo method; for mass density: Vibrating tube method

Cc1ccccc1Cl [2-chlorotoluene] + C1CCOCC1
[1]
Conditions	excess molar enthalpy [kcal/mol]
x1 = 0.0994	-0.0166
x1 = 0.1367	-0.0226
x1 = 0.1982	-0.0304
x1 = 0.2467	-0.0368
x1 = 0.3018	-0.0425
x1 = 0.3537	-0.0459
x1 = 0.3986	-0.04876
x1 = 0.4367	-0.05115
x1 = 0.4825	-0.0526
x1 = 0.5267	-0.0526
x1 = 0.5894	-0.05115
x1 = 0.6276	-0.05043
x1 = 0.6934	-0.0457
x1 = 0.7368	-0.0418
x1 = 0.7864	-0.037

[2]
Conditions	mass density, 298.15 K [kg/m3]	mass density, 303.15 K [kg/m3]	mass density, 308.15 K [kg/m3]	speed of sound, 298.15 K [m/s]	speed of sound, 303.15 K [m/s]	speed of sound, 308.15 K [m/s]
x1 = 0.1156	906.77	901.67	896.57	1274.6	1252.7	1230.7
x1 = 0.1765	920.75	915.67	910.57	1277	1255.6	1233.7
x1 = 0.2342	933.65	928.57	923.48	1279.3	1258.1	1236.6
x1 = 0.2765	942.89	937.81	932.73	1280.9	1259.9	1238.6
x1 = 0.3305	954.43	949.36	944.29	1282.9	1262	1241
x1 = 0.3716	963.04	957.97	952.9	1284.4	1263.7	1242.9
x1 = 0.4235	973.69	968.63	963.56	1286.2	1265.7	1245
x1 = 0.4721	983.44	978.39	973.33	1287.9	1267.4	1247
x1 = 0.5216	993.16	988.12	983.08	1289.4	1269	1249
x1 = 0.5803	1004.4	999.4	994.39	1291.2	1271.1	1251.1
x1 = 0.6317	1014.1	1009.1	1004.1	1292.6	1272.7	1252.8
x1 = 0.6796	1022.8	1017.9	1012.9	1293.9	1274.1	1254.5
x1 = 0.7216	1030.4	1025.4	1020.5	1294.8	1275.3	1255.7
x1 = 0.7737	1039.6	1034.7	1029.7	1296	1276.7	1257.3
x1 = 0.8219	1047.9	1043	1038.1	1296.8	1277.8	1258.6
x1 = 0.8753	1057	1052.1	1047.2	1297.7	1279	1260
x1 = 0.9064	1062.2	1057.3	1052.4	1298.1	1279.5	1260.7
x1 = 0.9325	1066.5	1061.6	1056.7	1298.3	1279.9	1261.4

Cc1ccccc1Cl [2-chlorotoluene] + C1COCCO1
[1]
Conditions	excess molar enthalpy [kcal/mol]
x1 = 0.0998	0.0387
x1 = 0.1643	0.0583
x1 = 0.2095	0.0676
x1 = 0.2498	0.07529
x1 = 0.3012	0.0827
x1 = 0.3567	0.0872
x1 = 0.4098	0.088
x1 = 0.4597	0.0877
x1 = 0.5088	0.0851
x1 = 0.5563	0.08078
x1 = 0.6019	0.07529
x1 = 0.6532	0.0672
x1 = 0.7067	0.0588
x1 = 0.7538	0.04924
x1 = 0.8093	0.0382
x1 = 0.8498	0.0299
x1 = 0.8932	0.0209
x1 = 0.9265	0.0144

[2]
Conditions	mass density, 298.15 K [kg/m3]	mass density, 303.15 K [kg/m3]	mass density, 308.15 K [kg/m3]	speed of sound, 298.15 K [m/s]	speed of sound, 303.15 K [m/s]	speed of sound, 308.15 K [m/s]
x1 = 0.0984	1033.4	1027.7	1022	1338.2	1316.6	1295.1
x1 = 0.1643	1036.9	1031.3	1025.6	1333.2	1312	1290.8
x1 = 0.2124	1039.5	1033.9	1028.3	1329.9	1308.9	1287.9
x1 = 0.2837	1043.3	1037.8	1032.3	1325.3	1304.6	1284
x1 = 0.3427	1046.3	1040.9	1035.5	1321.8	1301.5	1281.2
x1 = 0.3918	1048.9	1043.5	1038.2	1319.1	1299	1279
x1 = 0.4375	1051.2	1045.9	1040.6	1316.8	1296.9	1277
x1 = 0.4864	1053.6	1048.4	1043.1	1314.5	1294.8	1275.1
x1 = 0.5237	1055.5	1050.3	1045.1	1312.8	1293.2	1273.8
x1 = 0.5765	1058.1	1052.9	1047.7	1310.7	1291.2	1271.9
x1 = 0.6237	1060.4	1055.2	1050.1	1308.8	1289.6	1270.4
x1 = 0.6801	1063	1057.9	1052.8	1306.9	1287.7	1268.7
x1 = 0.7135	1064.6	1059.5	1054.4	1305.8	1286.7	1267.8
x1 = 0.7737	1067.4	1062.3	1057.2	1304	1285	1266.3
x1 = 0.8125	1069.2	1064.1	1059	1302.9	1284.1	1265.4
x1 = 0.8635	1071.4	1066.4	1061.4	1301.7	1283	1264.4
x1 = 0.9012	1073.1	1068.1	1063.1	1300.8	1282.2	1263.8
x1 = 0.9415	1074.9	1069.9	1064.9	1299.9	1281.5	1263.3
